Tested on: Plasmodium berghei
Assay: Luciferase/luciferin-expressing antifolate-resistant parasites were used to infect a culture of HepG2 cells that were pre-incubated with compounds. Infected hepatocytes emit light due to the luciferase reaction. Assay results are presented as the percent inhibition of light emission compared to control. […]
Assay type: functional
Conditions: sporozoite; for IC90: read-out: LUCIFERASE INFECTION ASSAY - IC90
[1] = read-out: LUCIFERASE INFECTION ASSAY - IC50

SMILES | IC90 [µM] | further results
CCOC(=O)c1c(CC(C)C)csc1NC(=O)CNc1ccc(-n2cnnn2)cc1 | > 10 | IC50 (FFLUC_HILL_SLOPE 13, FFLUC_R_SQUARED 0.249, read-out: LUCIFERASE INFECTION ASSAY - IC50): > 10 µM
CC(CCc1ccccc1)Nc1ccc(S(N)(=O)=O)cc1[N+](=O)[O-] (centres undefined) | > 10 | IC50 (HEPG2TOX_HILL_SLOPE 0.279, HEPG2TOX_R_SQUARED 0.54, PBLUC_HILL_SLOPE 1.88, PBLUC_R_SQUARED 0.412, read-out: LUCIFERASE INFECTION ASSAY - IC50): 8.69 µM
COc1ccc(-c2ccnn2-c2nc3ccccc3nc2C(F)(F)F)cc1 | 8.87 | IC50 (FFLUC_HILL_SLOPE 12, FFLUC_R_SQUARED 0.622, HEPG2TOX_HILL_SLOPE 8.32, HEPG2TOX_R_SQUARED 0.411, PBLUC_HILL_SLOPE 4.15, PBLUC_R_SQUARED 0.462, read-out: LUCIFERASE INFECTION ASSAY - IC50): 5.22 µM
Cc1ccc(C)c(N2C(=O)C=CC2=O)c1 | > 16.4 | IC50 (PBLUC_HILL_SLOPE 15.1, PBLUC_R_SQUARED 0.421, read-out: LUCIFERASE INFECTION ASSAY - IC50): 14.8 µM
CN(C)S(=O)(=O)c1cccc(C(=O)N(Cc2ccccc2)CC(O)COC(c2ccccc2)c2ccccc2)c1 (centres undefined) | > 10 | IC50 [1]: > 10 µM
Cc1cc(C(=O)Cn2cnc3ccccc3c2=O)c(C)n1-c1ccccc1F | > 10 | IC50 (HEPG2TOX_HILL_SLOPE 1.86, HEPG2TOX_R_SQUARED 0.464, PBLUC_HILL_SLOPE 1.21, PBLUC_R_SQUARED 0.574, read-out: LUCIFERASE INFECTION ASSAY - IC50): 3.66 µM
CSc1sc(-c2ccnc(SCC(=O)c3ccc(Cl)cc3)n2)c2c1C(=O)CCC2 | > 7.16 | IC50 [1]: > 7.16 µM
N#CC1C(=N)Oc2c3c(c4ccccc4c2C1c1ccc(F)cc1)C(c1ccc(F)cc1)C(C#N)C(=N)O3 (centres undefined) | > 6.54 | IC50 (FFLUC_HILL_SLOPE 11.1, FFLUC_R_SQUARED 0.748, PBLUC_HILL_SLOPE 2.09, PBLUC_R_SQUARED 0.0277, read-out: LUCIFERASE INFECTION ASSAY - IC50): 4.45 µM
O=C(/C=C/c1cn(Cc2ccccc2)nc1-c1ccccc1)N1CCN(c2ccncc2)CC1 | 6.13 | IC50 (PBLUC_HILL_SLOPE 2.17, PBLUC_R_SQUARED 0.608, read-out: LUCIFERASE INFECTION ASSAY - IC50): 2.22 µM
Cc1cc(C(=O)NC2CCN(c3ncnc4sc5c(c34)CCCC5)CC2)on1 | > 10 | IC50 [1]: > 10 µM
CC(C)COc1ccc(NC(=O)c2ccnn2C)cc1Cl | > 10 | IC50 (PBLUC_HILL_SLOPE 14.7, PBLUC_R_SQUARED 0.488, read-out: LUCIFERASE INFECTION ASSAY - IC50): 9.12 µM
Cc1nc2ccccc2nc1SCC(=O)NC1CCCC(C)C1C (centres undefined) | 8.45 | IC50 (HEPG2TOX_HILL_SLOPE 2.05, HEPG2TOX_R_SQUARED 0.851, PBLUC_HILL_SLOPE 3.81, PBLUC_R_SQUARED 0.351, read-out: LUCIFERASE INFECTION ASSAY - IC50): 4.75 µM
Cc1cc(C)c(C(=O)C2CCN(C(=O)c3cccs3)CC2)c(C)c1 | > 9.66 | IC50 (PBLUC_HILL_SLOPE 1.97, PBLUC_R_SQUARED 0.657, read-out: LUCIFERASE INFECTION ASSAY - IC50): 3.99 µM
Cc1[nH]c2ccccc2c1C(=O)C(C)OC(=O)C1(c2cccc(F)c2)CCCC1 (centres undefined) | > 10 | IC50 (HEPG2TOX_HILL_SLOPE 0.175, HEPG2TOX_R_SQUARED 0.148, read-out: LUCIFERASE INFECTION ASSAY - IC50): > 10 µM
CC(C)(O)C#Cc1ccc(/C=N/Nc2cccc(C(F)(F)F)n2)cc1 | 6.05 | IC50 (PBLUC_HILL_SLOPE 6.25, PBLUC_R_SQUARED 0.631, read-out: LUCIFERASE INFECTION ASSAY - IC50): 4.26 µM
O=c1[nH]c2ccccc2c(O)c1F | 2.92 | IC50 (PBLUC_HILL_SLOPE 2.84, PBLUC_R_SQUARED 0.833, read-out: LUCIFERASE INFECTION ASSAY - IC50): 1.35 µM
COc1ccc(OCC(N)=NC(=S)Nc2cccc(C(F)(F)F)c2)cc1 | > 8.61 | IC50 (PBLUC_HILL_SLOPE 17.2, PBLUC_R_SQUARED 0.0649, read-out: LUCIFERASE INFECTION ASSAY - IC50): > 8.61 µM
CCCN1C(=O)C(=O)N(CN2CCc3sccc3C2)C1=O | > 2 | IC50 [1]: > 2 µM
CC(C)(C)NC(=S)N/N=C/c1c(O)ccc2ccccc12 | 6.74 | IC50 [1]: 2.97 µM
c1ccn2c(Sc3ncnc4sccc34)nnc2c1 | 9.31 | IC50 (PBLUC_HILL_SLOPE 16.1, PBLUC_R_SQUARED 0.0872, read-out: LUCIFERASE INFECTION ASSAY - IC50): 8.13 µM
N=C(NOC(=O)c1cnn(-c2ccccc2)c1C(F)(F)F)c1ccc(Cl)cc1 | > 8.07 | IC50 [1]: 1.06 µM

SMILES | IC90 [µM] | further results
CCc1ccc(N(C(=O)C2CCN(C(=O)C(C)(C)C)CC2)c2nc3ccccc3s2)cc1 | > 10 | IC50 [1]: > 10 µM
Oc1cccc(-c2cnc3ccc(-c4cccc5ncccc45)nn23)c1 | > 10 | IC50 (HEPG2TOX_HILL_SLOPE 3.26, HEPG2TOX_R_SQUARED 0.941, PBLUC_HILL_SLOPE 1.24, PBLUC_R_SQUARED 0.528, read-out: LUCIFERASE INFECTION ASSAY - IC50): 1.84 µM
CCOc1cc(/C=C/C(=O)c2ccc(N(C)C)cc2)cc(Br)c1OCC(=O)N(C)C | 4.93 | IC50 [1]: 2.32 µM
COc1ccc(-c2nc(-c3ccccc3)c(-c3ccccc3)[nH]2)cc1OCC(N)=O | > 10 | IC50 (PBLUC_HILL_SLOPE 1.74, PBLUC_R_SQUARED 0.661, read-out: LUCIFERASE INFECTION ASSAY - IC50): 6.3 µM
Cc1cc(C(=O)COc2ccccc2C(N)=O)c(C)n1C(C)c1ccccc1 (centres undefined) | > 10 | IC50 (HEPG2TOX_HILL_SLOPE 1.33, HEPG2TOX_R_SQUARED 0.859, PBLUC_HILL_SLOPE 2.23, PBLUC_R_SQUARED 0.779, read-out: LUCIFERASE INFECTION ASSAY - IC50): 4.55 µM
CN(Cc1ccc(-c2ccc(Cl)cc2)o1)Cc1nnc2n(C)c(=O)c3ccccc3n12 | > 10 | IC50 [1]: > 10 µM
CC(C)NC(=O)c1c(NC(=O)c2cccc(Cl)c2Cl)nc2ccccn12 | > 8.43 | IC50 (PBLUC_HILL_SLOPE 29.4, PBLUC_R_SQUARED 0.349, read-out: LUCIFERASE INFECTION ASSAY - IC50): 7.83 µM
Cc1nnc(Sc2nc(CN3CCCCC3)nc3sc4c(c23)CCC4)s1 | > 10 | IC50 (HEPG2TOX_HILL_SLOPE 9.43, HEPG2TOX_R_SQUARED 0.839, read-out: LUCIFERASE INFECTION ASSAY - IC50): > 10 µM
C(=C(c1nc2ccccc2s1)c1nc2ccccc2s1)c1cccnc1 | 9.07 | IC50 (HEPG2TOX_HILL_SLOPE 18.8, HEPG2TOX_R_SQUARED 0.503, PBLUC_HILL_SLOPE 12.3, 18.3, PBLUC_R_SQUARED 0.0559, 0.217, read-out: LUCIFERASE INFECTION ASSAY - IC50): 7.82 µM
Oc1ccccc1-c1cc(-c2ccccc2)nn1Cc1ccccc1 | 3.93 | IC50 (PBLUC_HILL_SLOPE 14.4, PBLUC_R_SQUARED 0.373, read-out: LUCIFERASE INFECTION ASSAY - IC50): 3.37 µM
NC(=O)c1cc(S(=O)(=O)N2CCCC2)ccc1OCc1nc2ccccc2s1 | > 10 | IC50 (HEPG2TOX_HILL_SLOPE 0.311, HEPG2TOX_R_SQUARED 0.0458, PBLUC_HILL_SLOPE 3.01, PBLUC_R_SQUARED 0.0562, read-out: LUCIFERASE INFECTION ASSAY - IC50): 7.99 µM
Clc1ccc(-c2cnc3cnc(-c4cccs4)cn23)cc1 | 3.99 | IC50 (PBLUC_HILL_SLOPE 17.9, PBLUC_R_SQUARED 0.612, read-out: LUCIFERASE INFECTION ASSAY - IC50): 3.53 µM
CN(C)c1ccc(/C=C/c2cccc[n+]2C)cc1 | > 9.01 | IC50 (HEPG2TOX_HILL_SLOPE 3.15, HEPG2TOX_R_SQUARED 0.984, PBLUC_HILL_SLOPE 12.7, PBLUC_R_SQUARED 0.413, read-out: LUCIFERASE INFECTION ASSAY - IC50): 7.92 µM
O=C(C1CC(=O)N(c2ccccc2F)C1)N1CCN(c2ccc(C(F)(F)F)cn2)CC1 (centres undefined) | > 10 | IC50 [1]: > 10 µM
O=C(Nc1ccccc1)Nc1cccc(Cl)c1 | > 13.4 | IC50 [1]: > 13.4 µM
O=[N+]([O-])c1ccccc1/C=N/n1c(-c2ccc(Cl)cc2)cs/c1=N\CC1CCCO1 (centres undefined) | 7.09 | IC50 (HEPG2TOX_HILL_SLOPE 0.61, HEPG2TOX_R_SQUARED 0.914, PBLUC_HILL_SLOPE 1.45, PBLUC_R_SQUARED 0.571, read-out: LUCIFERASE INFECTION ASSAY - IC50): 1.55 µM
O=C(Nc1cccc(C(F)(F)F)c1)Nc1ccc2nc(-c3ccoc3)nn2c1 | 5.31 | IC50 (HEPG2TOX_HILL_SLOPE 8.17, HEPG2TOX_R_SQUARED 0.681, PBLUC_HILL_SLOPE 272, PBLUC_R_SQUARED 0.378, read-out: LUCIFERASE INFECTION ASSAY - IC50): 5.27 µM
Cc1cc(C)nc(-n2nc(C)cc2Nc2ccccc2)n1 | > 10 | IC50 (PBLUC_HILL_SLOPE 12.8, PBLUC_R_SQUARED 0.114, read-out: LUCIFERASE INFECTION ASSAY - IC50): > 10 µM
Cc1ccc2nc(NC(=O)COCc3ccccc3)c(C(=O)NC3CCCCC3)n2c1 | > 7.85 | IC50 [1]: > 7.85 µM
CC(C)Cc1ccc(CN2CCc3c(c(C(=O)N(C)Cc4cscn4)nn3CC3CC3)C2)cc1 | > 6.91 | IC50 (PBLUC_HILL_SLOPE 8.64, PBLUC_R_SQUARED 0.119, read-out: LUCIFERASE INFECTION ASSAY - IC50): 5.84 µM
CNS(=O)(=O)c1ccc(C(=O)Nc2ccc(Nc3ccccc3)cc2)o1 | 1.18 | IC50 (HEPG2TOX_HILL_SLOPE 2.07, HEPG2TOX_R_SQUARED 0.347, PBLUC_HILL_SLOPE 43.9, PBLUC_R_SQUARED 0.459, read-out: LUCIFERASE INFECTION ASSAY - IC50): 1.12 µM

Reference: ChEMBL document CHEMBL4483862, “Open-source discovery of chemical leads for next-generation chemoprotective antimalarials” (2018)
